{"source": "ChEMBL document CHEMBL3627608", "about": "“Crystal structures of human RIP2 kinase catalytic domain complexed with ATP-competitive inhibitors: Foundations for understanding inhibitor selectivity” (Bioorg Med Chem, 2015)", "key": {"[1]": {"target": "Mitogen-activated protein kinase 10 (Homo sapiens) (UniProt P53779)", "sequence (P53779 whole entry)": "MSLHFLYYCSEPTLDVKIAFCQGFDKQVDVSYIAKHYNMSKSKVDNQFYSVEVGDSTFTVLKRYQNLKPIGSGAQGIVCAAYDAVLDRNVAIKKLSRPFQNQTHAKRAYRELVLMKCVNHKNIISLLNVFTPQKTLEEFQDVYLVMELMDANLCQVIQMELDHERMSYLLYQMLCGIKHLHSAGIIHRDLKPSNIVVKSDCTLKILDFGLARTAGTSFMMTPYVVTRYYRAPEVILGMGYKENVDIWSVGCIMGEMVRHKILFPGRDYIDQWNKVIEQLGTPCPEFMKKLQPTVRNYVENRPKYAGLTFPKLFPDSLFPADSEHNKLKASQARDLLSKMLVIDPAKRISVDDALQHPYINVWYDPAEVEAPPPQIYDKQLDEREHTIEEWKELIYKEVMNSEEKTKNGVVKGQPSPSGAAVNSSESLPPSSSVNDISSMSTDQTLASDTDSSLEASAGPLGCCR", "test": "Inhibition of JNK3 (unknown origin) at 10 uM after 120 mins P33 radiolabeled kinase activity assay"}, "[2]": {"target": "Serine/threonine-protein kinase tousled-like 2 (Homo sapiens) (UniProt Q86UE8)", "sequence (Q86UE8 whole entry, looked up)": "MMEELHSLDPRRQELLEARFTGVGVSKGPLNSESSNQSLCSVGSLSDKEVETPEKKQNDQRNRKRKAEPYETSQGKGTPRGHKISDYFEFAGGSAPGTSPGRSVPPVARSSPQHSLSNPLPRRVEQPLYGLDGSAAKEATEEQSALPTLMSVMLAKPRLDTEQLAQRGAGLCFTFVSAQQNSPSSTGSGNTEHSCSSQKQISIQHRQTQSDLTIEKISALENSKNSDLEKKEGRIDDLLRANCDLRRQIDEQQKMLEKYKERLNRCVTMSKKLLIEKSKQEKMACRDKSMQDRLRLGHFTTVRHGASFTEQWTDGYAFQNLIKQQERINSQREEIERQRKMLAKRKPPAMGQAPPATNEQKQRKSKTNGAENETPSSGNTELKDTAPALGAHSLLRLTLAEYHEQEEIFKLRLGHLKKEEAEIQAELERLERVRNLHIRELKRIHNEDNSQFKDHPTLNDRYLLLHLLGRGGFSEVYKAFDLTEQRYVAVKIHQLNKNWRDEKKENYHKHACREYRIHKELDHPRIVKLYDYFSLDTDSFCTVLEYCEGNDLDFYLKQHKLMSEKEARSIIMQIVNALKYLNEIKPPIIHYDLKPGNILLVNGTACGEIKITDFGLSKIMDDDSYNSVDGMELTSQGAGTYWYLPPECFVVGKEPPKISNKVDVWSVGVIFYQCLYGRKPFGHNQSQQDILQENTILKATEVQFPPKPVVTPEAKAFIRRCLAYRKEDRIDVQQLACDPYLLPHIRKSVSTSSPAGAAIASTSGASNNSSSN", "test": "Inhibition of TLK2 (unknown origin) at 10 uM after 120 mins P33 radiolabeled kinase activity assay"}, "[3]": {"target": "Bone morphogenetic protein receptor type-1B (Homo sapiens) (UniProt O00238)", "sequence (O00238 whole entry)": "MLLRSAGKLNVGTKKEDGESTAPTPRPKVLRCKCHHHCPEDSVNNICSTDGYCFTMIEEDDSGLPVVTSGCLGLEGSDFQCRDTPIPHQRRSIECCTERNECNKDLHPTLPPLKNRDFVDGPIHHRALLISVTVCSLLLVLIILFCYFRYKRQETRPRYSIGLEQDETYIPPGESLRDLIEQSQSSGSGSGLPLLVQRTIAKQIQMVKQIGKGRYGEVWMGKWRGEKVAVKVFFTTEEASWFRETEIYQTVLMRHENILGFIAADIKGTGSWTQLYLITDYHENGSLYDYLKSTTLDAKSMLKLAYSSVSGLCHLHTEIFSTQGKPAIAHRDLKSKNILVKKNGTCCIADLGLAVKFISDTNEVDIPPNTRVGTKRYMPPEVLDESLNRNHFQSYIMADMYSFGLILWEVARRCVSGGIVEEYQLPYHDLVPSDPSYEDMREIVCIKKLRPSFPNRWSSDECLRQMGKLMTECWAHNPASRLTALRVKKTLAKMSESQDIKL", "test": "Inhibition of ALK6 (unknown origin) at 10 uM after 120 mins P33 radiolabeled kinase activity assay"}, "[4]": {"target": "Mitogen-activated protein kinase 7 (Homo sapiens) (UniProt Q13164)", "sequence (Q13164 2-816 limits assumed)": "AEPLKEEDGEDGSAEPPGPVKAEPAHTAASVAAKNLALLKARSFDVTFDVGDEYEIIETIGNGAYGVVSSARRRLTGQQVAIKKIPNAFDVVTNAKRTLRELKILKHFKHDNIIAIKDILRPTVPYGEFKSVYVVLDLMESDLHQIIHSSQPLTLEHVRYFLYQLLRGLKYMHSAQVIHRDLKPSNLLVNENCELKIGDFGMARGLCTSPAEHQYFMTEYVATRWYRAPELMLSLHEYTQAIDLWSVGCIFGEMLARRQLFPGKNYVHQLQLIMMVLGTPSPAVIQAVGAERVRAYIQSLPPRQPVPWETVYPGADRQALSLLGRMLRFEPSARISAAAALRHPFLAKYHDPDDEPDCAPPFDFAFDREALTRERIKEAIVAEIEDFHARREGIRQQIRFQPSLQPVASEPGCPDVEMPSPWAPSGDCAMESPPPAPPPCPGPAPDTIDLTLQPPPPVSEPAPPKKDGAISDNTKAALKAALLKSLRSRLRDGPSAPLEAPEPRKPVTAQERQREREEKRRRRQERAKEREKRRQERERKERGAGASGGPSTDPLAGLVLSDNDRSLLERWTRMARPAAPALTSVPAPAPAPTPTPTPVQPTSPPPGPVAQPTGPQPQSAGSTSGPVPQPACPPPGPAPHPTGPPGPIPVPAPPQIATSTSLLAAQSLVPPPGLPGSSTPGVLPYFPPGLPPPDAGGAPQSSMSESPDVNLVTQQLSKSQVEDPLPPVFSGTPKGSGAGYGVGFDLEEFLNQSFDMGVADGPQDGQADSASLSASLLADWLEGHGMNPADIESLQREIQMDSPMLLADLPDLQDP", "test": "Inhibition of ERK5 (unknown origin) at 10 uM after 120 mins P33 radiolabeled kinase activity assay"}}, "data": [{"smiles": "CS(=O)(=O)c1cccc(Nc2nccc(-c3sc(N4CCOCC4)nc3-c3cccc(NS(=O)(=O)c4c(F)cccc4F)c3)n2)c1", "values": [{"measurement": "inhibition", "setting": "[1]", "result": -7.87, "unit": "%"}, {"measurement": "inhibition", "setting": "[2]", "result": -6.51, "unit": "%"}, {"measurement": "inhibition", "setting": "[3]", "result": 92.8, "unit": "%"}]}, {"smiles": "CC(C)(C)c1cc(NC(=O)Nc2ccc(Oc3ccncc3)cc2)no1", "values": [{"measurement": "inhibition", "setting": "[4]", "result": -8.59, "unit": "%"}]}]}
